Here are results for 24 compounds from patent US10414774B2, “Compound useful for altering the levels of bile acids for the treatment of diabetes and cardiometabolc disease” (Merck Sharp & Dohme Corp., priority 2016, dated 2019).

The structures appear in SMILES notation.

The target of this experiment is T1, Human CYP8B1 (Homo sapiens, UniProt Q9UNU6).
T1 sequence (Q9UNU6 1-501): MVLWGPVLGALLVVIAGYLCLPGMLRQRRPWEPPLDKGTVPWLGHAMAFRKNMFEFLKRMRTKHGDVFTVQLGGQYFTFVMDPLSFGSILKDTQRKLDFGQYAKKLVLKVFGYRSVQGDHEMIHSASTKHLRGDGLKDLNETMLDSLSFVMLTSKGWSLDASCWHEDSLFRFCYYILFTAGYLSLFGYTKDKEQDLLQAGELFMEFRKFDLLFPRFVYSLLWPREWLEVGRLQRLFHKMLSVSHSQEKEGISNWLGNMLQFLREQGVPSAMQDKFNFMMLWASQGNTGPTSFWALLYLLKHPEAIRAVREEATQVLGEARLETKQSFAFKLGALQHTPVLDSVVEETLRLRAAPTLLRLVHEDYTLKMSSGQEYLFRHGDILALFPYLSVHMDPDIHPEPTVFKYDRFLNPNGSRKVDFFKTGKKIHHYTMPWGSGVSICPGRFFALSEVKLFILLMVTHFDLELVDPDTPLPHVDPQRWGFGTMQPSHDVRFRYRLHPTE
Put plainly: Human CYP8B1 Liver Microsome Assay. The following applies: Human CYP8B1 IC50, human liver microsomes; substrate 7a-hydroxy-4-cholesten-3-one, NADPH; RapidFire MS detection of 7α,12α-dihydroxy-4-cholesten-3-one. For orientation: Microsomes from liver hold many membrane-bound enzymes, among them those of drug oxidation.
The IC50 is the midpoint of a concentration-inhibition curve. On to `CC1CC(C(=O)N2CCn3c(nnc3C(F)(F)F)C2)CCN1c1c(C#N)cnc2ccc(Cl)cc12` (single isomer, unassigned) [Example 73a, 6-chloro-4-[(2R,4R) or (2S,4S)-2-methyl-4-{[3-(trifluoromethyl)-5,6-dihydro[1,2,4]triazolo[4,3-a]pyrazin-7(8H)-yl]carbonyl}piperidin-1-yl]quinoline-3-carbonitrile], for which the IC50 came to 6.4 nM.
In the case of `COc1ccc2c(N3CC[C@H](C(=O)N4CCn5c(nnc5C(F)F)C4)[C@H](C)C3)c(C#N)cnc2c1` [Example 70, 4-[(3S,4S)-4-{[3-(difluoromethyl)-5,6-dihydro[1,2,4]triazolo[4,3-a]pyrazin-7(8H)-yl]carbonyl}-3-methylpiperidin-1-yl]-7-methoxyquinoline-3-carbonitrile] it was 0.88 nM; in that of `COc1ccc2c(N3CC[C@H](C(=O)N4CCn5c(nnc5C(F)(F)F)C4)[C@H](C)C3)c(C#N)c(C)nc2c1` [Example 34, 7-methoxy-2-methyl-4-[(3S,4S)-3-methyl-4-{[3-(trifluoromethyl)-5,6-dihdyro[1,2,4]triazolo[4,3-a]pyrazin-7(8H)-yl]carbonyl}piperidin-1-yl]quinoline-3-carbonitrile], 0.89 nM.
`CO[C@@H]1CN(c2c(C#N)cnc3ccc(Cl)cc23)CC[C@H]1C(=O)N1CCn2c(nnc2C(F)(F)F)C1` [Example 72b, 6-chloro-4-[(3S,4R)-3-methoxy-4-{[3-(trifluoromethyl)-5,6-dihydro[1,2,4]triazolo[4,3-a]pyrazin-7(8H)-yl]carbonyl}piperidin-1-yl]quinoline-3-carbonitrile] returned an IC50 of 441 nM. Against the preceding compound, the IC50 is about 500-fold higher.
Take `Cn1nc(C(F)(F)F)c2c1CN(C(=O)C1CCN(c3c(C#N)cnc4ccc(Cl)cc34)CC1)CC2` [Example 113, 6-chloro-4-(4-{[1-methyl-3-(trifluoromethyl)-1,4,5,7-tetrahydro-6H-pyrazolo[3,4-c]pyridin-6-yl]carbonyl}piperidin-1-yl)quinoline-3-carbonitrile]: the IC50 is 16.1 nM.
In turn, `N#Cc1cnc2ccc(Cl)cc2c1N1CCC(C(=O)N2CCn3c(nnc3C(F)(F)F)C2)CC1` [Example 103, 6-chloro-4-(4-(3-(trifluoromethyl)-5,6,7,8-tetrahydro-[1,2,4]triazolo[4,3-a]pyrazine-7-carbonyl)piperidin-1-yl)quinoline-3-carbonitrile] registered an IC50 of 23.2 nM.
In the case of `COc1ccc2nc(C)c(C#N)c(N3CC[C@H](C(=O)N4CCn5c(nnc5C(F)(F)F)C4)[C@H](C)C3)c2c1` [Example 32, 6-methoxy-2-methyl-4-[(3S,4S)-3-methyl-4-{[3-(trifluoromethyl)-5,6-dihydro[1,2,4]triazolo[4,3-a]pyrazin-7(8H)-yl]carbonyl}piperidin-1-yl]quinoline-3-carbonitrile] it was 2.9 nM.
For the compound `N#Cc1cnc2ccc(Cl)cc2c1N1CCC(F)(C(=O)N2CCn3c(nnc3C(F)(F)F)C2)CC1` [Example 120, 6-chloro-4-(4-fluoro-4-{[3-(trifluoromethyl)-5,6-dihydro[1,2,4]triazolo[4,3-a]pyrazin-7(8H)-yl]carbonyl}piperidin-1-yl)quinoline-3-carbonitrile], the midpoint of inhibition, the IC50, lay at 169 nM.
In turn, `COc1cc2ncc(C#N)c(N3CC[C@H](C(=O)N4CCn5c(nnc5C(F)(F)F)C4)[C@H](C)C3)c2cc1Br` [Example 20, 6-bromo-7-methoxy-4-[(3S,4S)-3-methyl-4-{[3-(trifluoromethyl)-5,6-dihydro[1,2,4]triazolo[4,3-a]pyrazin-7(8H)-yl]carbonyl}piperidin-1-yl]quinoline-3-carbonitrile] had an IC50 of 0.24 nM.
For the compound `N#Cc1cnc2ccc(Cl)cc2c1N1CCC(C(=O)N2CCn3cncc3C2)CC1` [Example 105, 6-chloro-4-[4-(5,6-dihydroimidazo[1,5-a]pyrazin-7(8H)-ylcarbonyl)piperidin-1-yl]quinoline-3-carbonitrile], the IC50 was found to be 878 nM.
`CC1(C(=O)N2CCn3c(nnc3C(F)(F)F)C2)CCN(c2c(C#N)cnc3ccc(Cl)cc23)CC1` [Example 121, 6-chloro-4-(4-methyl-4-{[3-(trifluoromethyl)-5,6-dihydro[1,2,4]triazolo[4,3-a]pyrazin-7(8H)-yl]carbonyl}piperidin-1-yl)quinoline-3-carbonitrile]: the IC50 is 14 nM.
In turn, `Cc1nc2ccc(Cl)cc2c(N2CC[C@H](C(=O)N3CCc4[nH]ncc4C3)[C@H](C)C2)c1C#N` [Example 95, 6-chloro-2-methyl-4-[(3S,4S)-3-methyl-4-(1,4,6,7-tetrahydro-5H-pyrazolo[4,3-c]pyridin-5-ylcarbonyl)piperidin-1-yl]quinoline-3-carbonitrile] gave an IC50 of 17 nM.
In the case of `CC[C@H]1CN(c2c(C#N)cnc3ccc(Cl)cc23)CC[C@H]1C(=O)N1CCn2c(nnc2C(F)(F)F)C1` [Example 75a, 6-chloro-4-[(3R,4R)-3-ethyl-4-{[3-(trifluoromethyl)-5,6-dihydro[1,2,4]triazolo[4,3-a]pyrazin-7(8H)-yl]carbonyl}piperidin-1-yl]quinoline-3-carbonitrile] it was 307 nM.
As to `N#Cc1cnc2ccc(Cl)cc2c1N1CCN(C(=O)N2CCn3c(nnc3C(F)(F)F)C2)CC1` [Example 129, 6-chloro-4-(4-{[3-(trifluoromethyl)-5,6-dihydro[1,2,4]triazolo[4,3-a]pyrazin-7(8H)-yl]carbonyl}piperazin-1-yl)quinoline-3-carbonitrile], the IC50 is 386 nM.
Compound `C[C@H]1CN(c2c(C#N)cnc3c(F)c(Cl)ccc23)CC[C@H]1C(=O)N1CCn2c(nnc2C2CC2)C1` [Example 65, 7-chloro-4-{(3R,4R)-4-[(3-cyclopropyl-5,6-dihydro[1,2,4]triazolo[4,3-a]pyrazin-7(8H)-yl)carbonyl]-3-methylpiperidin-1-yl}-8-fluoroquinoline-3-carbonitrile] displayed an IC50 of 318 nM.
Compound `COc1ccc2c(N3CC[C@H](C(=O)N4CCn5c(nnc5C(F)(F)F)C4)[C@H](C4CC4)C3)c(C#N)cnc2c1F` [Example 77b, 4-[(3S,4S)-3-cyclopropyl-4-{[3-(trifluoromethyl)-5,6-dihydro[1,2,4]triazolo[4,3-a]pyrazin-7(8H)-yl]carbonyl}piperidin-1-yl]-8-fluoro-7-methoxyquinoline-3-carbonitrile] showed an IC50 of 1.8 nM.
Compound `C[C@@H]1CN(c2c(C#N)cnc3cc(OCC(F)F)ccc23)CC[C@@H]1C(=O)N1CCn2c(nnc2C(F)(F)F)C1` [Example 102, 7-(2,2-difluoroethoxy)-4-[(3S,4S)-3-methyl-4-{[3-(trifluoromethyl)-5,6-dihydro[1,2,4]triazolo[4,3-a]pyrazin-7(8H)-yl]carbonyl}piperidin-1-yl]quinoline-3-carbonitrile] registered an IC50 of 0.33 nM.
Compound `C[C@@H]1CN(c2c(C#N)cnc3c(Cl)c(F)ccc23)CC[C@@H]1C(=O)N1CCn2c(nnc2C(F)(F)F)C1` [Example 13, 8-chloro-7-fluoro-4-[(3S,4S)-3-methyl-4-{[3-(trifluoromethyl)-5,6-dihdyro[1,2,4]triazolo[4,3-a]pyrazin-7(8H)-yl]carbonyl}piperidin-1-yl]quinoline-3-carbonitrile] came in with an IC50 of 3.3 nM.
In the case of `CCOc1ccc2c(N3CC[C@H](C(=O)N4CCn5c(nnc5C(F)(F)F)C4)[C@H](C)C3)c(C#N)cnc2c1` [Example 39, 7-ethoxy-4-[(3S,4S)-3-methyl-4-{[3-(trifluoromethyl)-5,6-dihydro[1,2,4]triazolo[4,3-a]pyrazin-7(8H)-yl]carbonyl}piperidin-1-yl]quinoline-3-carbonitrile] it was 0.7 nM; in that of `Cc1nc2ccc(F)cc2c(N2CC[C@H](C(=O)N3CCn4c(nnc4C(F)(F)F)C3)[C@H](C)C2)c1C#N` [Example 29, 6-fluoro-2-methyl-4-[(3S,4S)-3-methyl-4-{[3-(trifluoromethyl)-5,6-dihydro[1,2,4]triazolo[4,3-a]pyrazin-7(8H)-yl]carbonyl}piperidin-1-yl]quinoline-3-carbonitrile], 9.4 nM.
In the case of `CC1CC(C(=O)N2CCn3c(nnc3C(F)(F)F)C2)CCN1c1c(C#N)cnc2ccc(Cl)cc12` (single isomer, unassigned) [Example 73b, 6-chloro-4-[(2R,4R) or (2S,4S)-2-methyl-4-{[3-(trifluoromethyl)-5,6-dihydro[1,2,4]triazolo[4,3-a]pyrazin-7(8H)-yl]carbonyl}piperidin-1-yl]quinoline-3-carbonitrile] it was 15 nM.
Consider `N#Cc1cnc2ccc(Cl)cc2c1N1CCC(C(=O)N2CCn3cc(C(F)(F)F)nc3C2)CC1` [Example 104, 6-chloro-4-(4-{[2-(trifluoromethyl)-5,6-dihydroimidazo[1,2-a]pyrazin-7(8H)-yl]carbonyl}piperidin-1-yl)quinoline-3-carbonitrile], for which the IC50 was determined as 863 nM.
In the case of `Cc1nc2cc(F)c(F)cc2c(N2CCC(C(=O)N3CCn4c(nnc4C(F)(F)F)C3)CC2)c1C#N` [Example 50, 6,7-difluoro-2-methyl-4-(4-(3-(trifluoromethyl)-5,6,7,8-tetrahydro-[1,2,4]triazolo[4,3-a]pyrazine-7-carbonyl)piperidin-1-yl)quinoline-3-carbonitrile] it was 2260 nM; in that of `C[C@@H]1CN(c2c(C#N)cnc3cc(C(C)(F)F)ccc23)CC[C@@H]1C(=O)N1CCn2c(nnc2C(F)(F)F)C1` [Example 78, 7-(1,1-difluoroethyl)-4-[(3S,4S)-3-methyl-4-{[3-(trifluoromethyl)-5,6-dihydro[1,2,4]triazolo[4,3-a]pyrazin-7(8H)-yl]carbonyl}piperidin-1-yl]quinoline-3-carbonitrile], 1 nM.
